In brackets after ≈: the same amount, converted by molar mass. Several values for one entry are separate records, joined by “and”; a condition that tells them apart may be missing. Equal entries are not always repeated. Where two headings read alike, the source gives them in different places.
Key:
Opiate Kappa (OP2, KOP) = target: T1, Opiate Kappa (OP2, KOP) (Homo sapiens, UniProt P41145); assay: Receptor Profiling 260210; type: binding
T1 construct: purchased Eurofins Discovery Services (Panlabs safety panel)
Description: (§1) Several in vitro selectivity assays were performed at Eurofins Discovery Services using established methods and controls that behaved as expected (Supplementary Tables 5 and 6). […] For receptor panel profiling, MBX-4132 was evaluated at 10 μM and activity of >50% (agonist or antagonist; note that negative % inhibition indicates agonism) was scored as active.

Phosphodiesterase PDE4D2 = target: T2, Phosphodiesterase PDE4D2 (Homo sapiens, UniProt Q08499); assay: Receptor Profiling 154420; type: biochemical
T2 construct: Eurofins Discovery Services (contract assay) 154420
T2 sequence (Q08499 303-809 limits assumed): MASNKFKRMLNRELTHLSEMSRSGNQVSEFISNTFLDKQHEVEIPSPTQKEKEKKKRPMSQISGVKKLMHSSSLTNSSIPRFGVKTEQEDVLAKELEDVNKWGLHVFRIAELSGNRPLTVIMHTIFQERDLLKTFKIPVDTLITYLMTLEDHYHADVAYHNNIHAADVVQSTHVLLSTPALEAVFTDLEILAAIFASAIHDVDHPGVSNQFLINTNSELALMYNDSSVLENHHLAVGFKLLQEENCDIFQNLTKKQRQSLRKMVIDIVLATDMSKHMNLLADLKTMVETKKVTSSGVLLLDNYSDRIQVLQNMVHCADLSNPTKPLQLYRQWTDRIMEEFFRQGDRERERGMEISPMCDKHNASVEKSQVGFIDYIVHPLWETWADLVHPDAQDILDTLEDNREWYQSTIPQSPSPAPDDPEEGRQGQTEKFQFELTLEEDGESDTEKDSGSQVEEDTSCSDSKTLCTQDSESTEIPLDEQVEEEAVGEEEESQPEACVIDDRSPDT
Description: as §1

CYP1A = assay: Cyp inhibition assay 4876; type: in vitro ADME, human; details: catalog reference 4876
Description: as §1

[1] = target: T3, Cholinesterase, Acetyl, ACES (Homo sapiens, UniProt P22303); assay: Receptor Profiling 104010; type: biochemical
T3 construct: Eurofins Discovery Services (contract assay) 104010
T3 sequence (P22303 32-614): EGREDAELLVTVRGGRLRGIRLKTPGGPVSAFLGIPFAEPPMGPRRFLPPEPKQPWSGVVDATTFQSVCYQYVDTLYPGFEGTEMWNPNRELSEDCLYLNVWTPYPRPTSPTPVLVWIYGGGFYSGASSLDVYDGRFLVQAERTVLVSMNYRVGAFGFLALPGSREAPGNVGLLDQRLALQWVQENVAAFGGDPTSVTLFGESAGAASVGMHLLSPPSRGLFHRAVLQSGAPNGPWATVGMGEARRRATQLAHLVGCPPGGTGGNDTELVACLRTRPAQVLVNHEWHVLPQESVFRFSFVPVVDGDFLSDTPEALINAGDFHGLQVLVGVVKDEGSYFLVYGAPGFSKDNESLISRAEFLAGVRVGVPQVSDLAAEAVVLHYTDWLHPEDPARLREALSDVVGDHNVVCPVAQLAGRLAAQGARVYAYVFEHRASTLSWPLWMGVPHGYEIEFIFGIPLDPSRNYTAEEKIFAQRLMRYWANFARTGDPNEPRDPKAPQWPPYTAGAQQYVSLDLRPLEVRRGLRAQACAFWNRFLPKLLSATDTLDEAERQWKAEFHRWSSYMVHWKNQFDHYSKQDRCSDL
Description: as §1

KCNQ1/mink = target: T4, KCNQ1/mink (Homo sapiens, UniProt P51787); assay: cell-based
T4 construct: Eurofins Discovery Services (contract assay) CYL8007QP2DR
Description: as §1

Cav1.2 = target: T5, Cav1.2 (Homo sapiens, UniProt Q13936); assay: cell-based
T5 construct: Eurofins Discovery Services (contract assay) CYL8051QP2DR
Description: as §1

[2] = target: T6, Transporter, Serotonin (5-Hyroxytryptamine) (SERT) (Homo sapiens, UniProt P31645); assay: Receptor Profiling 274030; type: binding
T6 construct: purchased Eurofins Discovery Services 274030
T6 sequence (P31645 whole entry): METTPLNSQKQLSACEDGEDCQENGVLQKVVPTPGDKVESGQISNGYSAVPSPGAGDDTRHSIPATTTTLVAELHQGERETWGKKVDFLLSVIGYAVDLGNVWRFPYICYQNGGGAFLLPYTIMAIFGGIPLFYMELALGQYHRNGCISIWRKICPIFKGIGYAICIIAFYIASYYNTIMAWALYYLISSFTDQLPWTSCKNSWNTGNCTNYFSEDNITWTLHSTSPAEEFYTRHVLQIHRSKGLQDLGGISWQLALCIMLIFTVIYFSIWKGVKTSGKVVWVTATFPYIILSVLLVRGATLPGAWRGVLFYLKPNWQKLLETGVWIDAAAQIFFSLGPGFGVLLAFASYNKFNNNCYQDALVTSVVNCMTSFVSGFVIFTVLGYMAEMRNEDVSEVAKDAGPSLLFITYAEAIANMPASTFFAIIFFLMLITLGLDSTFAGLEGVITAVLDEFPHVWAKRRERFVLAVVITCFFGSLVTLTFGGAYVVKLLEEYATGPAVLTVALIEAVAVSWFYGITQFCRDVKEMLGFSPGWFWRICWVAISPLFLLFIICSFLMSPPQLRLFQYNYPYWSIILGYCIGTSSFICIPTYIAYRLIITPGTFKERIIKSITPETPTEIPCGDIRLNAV
Description: as §1

Adrenergic α1A = target: T7, Adrenergic α1A (Homo sapiens, UniProt P35348); assay: Receptor Profiling 203110; type: binding
T7 construct: purchased Eurofins Discovery Services (Panlabs safety panel)
T7 sequence (P35348 whole entry): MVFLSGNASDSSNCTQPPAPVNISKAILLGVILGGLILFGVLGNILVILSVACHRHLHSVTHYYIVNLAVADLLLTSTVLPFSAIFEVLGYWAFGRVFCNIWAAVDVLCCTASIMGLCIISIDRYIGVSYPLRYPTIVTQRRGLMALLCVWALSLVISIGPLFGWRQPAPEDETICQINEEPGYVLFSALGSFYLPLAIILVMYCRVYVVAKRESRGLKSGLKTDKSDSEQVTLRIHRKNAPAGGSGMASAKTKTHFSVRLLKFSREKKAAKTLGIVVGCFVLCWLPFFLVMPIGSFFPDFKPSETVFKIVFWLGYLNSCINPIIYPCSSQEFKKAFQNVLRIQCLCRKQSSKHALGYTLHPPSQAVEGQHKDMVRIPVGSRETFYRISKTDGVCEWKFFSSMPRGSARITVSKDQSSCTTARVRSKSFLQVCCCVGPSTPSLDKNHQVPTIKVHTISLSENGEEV
Description: as §1

Cycloogenase COX-1 = target: T8, Cycloogenase COX-1 (Homo sapiens, UniProt P23219); assay: Receptor Profiling 116030; type: biochemical
T8 construct: Eurofins Discovery Services (contract assay) 116030
Description: as §1

[3] = test system: N. gonorrhoeae strain 49226 (ATCC); assay: Frequency of resistance; type: cell-based, Neisseria gonorrhoeae; details: selection at 4x and 8x MIC
CYP2D6 = target: T9, CYP2D6 (Homo sapiens, UniProt P10635); assay: Cyp inhibition assay 4875; type: in vitro ADME; details: catalog reference 4875, read-out: pIC50 (µM) reported (converted)
T9 construct: Eurofins Discovery Services (contract assay) 4875
Description: as §1

Opiate Delta1 (OP1, DOP) = target: T10, Opiate Delta1 (OP1, DOP) (Homo sapiens, UniProt P41143); assay: Receptor Profiling 260130; type: binding
T10 construct: purchased Eurofins Discovery Services (Panlabs safety panel)
Description: as §1

Legionella pneumophila = assay: microbe, parasite or virus in culture; type: cell-based
Vasopressin V1A = target: T11, Vasopressin V1A (Homo sapiens, UniProt P37288); assay: Receptor Profiling 287530; type: binding
T11 construct: purchased Eurofins Discovery Services 287530
T11 sequence (P37288 whole entry): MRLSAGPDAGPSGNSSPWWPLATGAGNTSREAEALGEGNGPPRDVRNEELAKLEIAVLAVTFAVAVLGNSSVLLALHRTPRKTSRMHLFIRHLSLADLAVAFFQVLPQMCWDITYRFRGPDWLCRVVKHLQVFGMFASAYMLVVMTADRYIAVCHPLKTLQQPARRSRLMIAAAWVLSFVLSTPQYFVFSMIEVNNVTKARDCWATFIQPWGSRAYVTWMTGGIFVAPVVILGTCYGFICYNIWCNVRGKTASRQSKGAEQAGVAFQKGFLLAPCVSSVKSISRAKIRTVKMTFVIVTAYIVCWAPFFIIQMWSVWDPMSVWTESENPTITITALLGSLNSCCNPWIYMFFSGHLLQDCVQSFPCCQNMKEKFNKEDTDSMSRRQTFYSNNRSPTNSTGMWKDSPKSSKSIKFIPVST
Description: as §1

Caco-2 cells = assay: Caco-2 permeability; type: in vitro ADME, human
Description: (§2) To evaluate the potential for oral bioavailability, the ability of prioritized compounds to permeate a monolayer of Caco-2 (ATCC HTB-37) intestinal epithelial cells was determined as described. Caco-2 permeability values (Papp) > 1 × 10^−6 cm/sec are predictive of oral bioavailability.

Caco-2 permeability = type: in vitro ADME, human; details: human
Description: as §2

CYP2C19 = target: T12, CYP2C19 (Homo sapiens, UniProt P33261); assay: Cyp inhibition assay 4874; type: in vitro ADME; details: catalog reference 4874, read-out: pIC50 (µM) reported (converted)
T12 construct: Eurofins Discovery Services (contract assay) 4874
T12 sequence (P33261 whole entry): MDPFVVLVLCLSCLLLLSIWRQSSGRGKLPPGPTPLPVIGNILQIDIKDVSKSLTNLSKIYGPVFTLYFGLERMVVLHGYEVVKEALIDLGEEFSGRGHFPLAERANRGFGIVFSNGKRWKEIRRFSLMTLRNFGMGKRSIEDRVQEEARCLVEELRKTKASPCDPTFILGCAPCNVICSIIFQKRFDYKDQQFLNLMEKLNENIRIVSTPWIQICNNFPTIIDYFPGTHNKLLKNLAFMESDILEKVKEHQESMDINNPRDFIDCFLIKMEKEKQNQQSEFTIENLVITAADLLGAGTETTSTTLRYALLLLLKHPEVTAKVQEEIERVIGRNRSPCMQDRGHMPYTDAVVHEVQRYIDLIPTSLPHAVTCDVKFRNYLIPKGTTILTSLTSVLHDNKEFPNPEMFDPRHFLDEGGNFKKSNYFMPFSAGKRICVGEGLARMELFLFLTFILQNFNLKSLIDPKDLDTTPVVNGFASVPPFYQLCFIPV
Description: as §1

CYP2C8 = target: T13, CYP2C8 (Homo sapiens, UniProt P10632); assay: Cyp inhibition assay 4879; type: in vitro ADME; details: catalog reference 4879, read-out: pIC50 (µM) reported (converted)
T13 construct: Eurofins Discovery Services (contract assay) 4879
T13 sequence (P10632 whole entry): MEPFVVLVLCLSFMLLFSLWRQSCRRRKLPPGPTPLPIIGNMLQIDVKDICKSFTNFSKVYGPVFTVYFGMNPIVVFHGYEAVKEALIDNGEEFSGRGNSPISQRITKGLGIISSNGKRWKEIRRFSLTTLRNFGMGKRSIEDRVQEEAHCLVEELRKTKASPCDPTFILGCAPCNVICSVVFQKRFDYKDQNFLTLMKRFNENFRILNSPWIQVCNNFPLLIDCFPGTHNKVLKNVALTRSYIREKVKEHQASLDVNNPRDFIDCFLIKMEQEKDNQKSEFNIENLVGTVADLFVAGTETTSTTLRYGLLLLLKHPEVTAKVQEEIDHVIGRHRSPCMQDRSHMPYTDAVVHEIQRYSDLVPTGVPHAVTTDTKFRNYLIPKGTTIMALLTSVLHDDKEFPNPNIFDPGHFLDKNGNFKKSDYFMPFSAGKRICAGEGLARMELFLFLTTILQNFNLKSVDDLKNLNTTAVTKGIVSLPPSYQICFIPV
Description: as §1

Haemophilus influenzae = assay: MIC, microbroth dilution; type: cell-based
CYP2C9 = target: T14, CYP2C9 (Homo sapiens, UniProt P11712); assay: Cyp inhibition assay 4878; type: in vitro ADME; details: catalog reference 4878
T14 construct: Eurofins Discovery Services (contract assay) 4878
T14 sequence (P11712 whole entry): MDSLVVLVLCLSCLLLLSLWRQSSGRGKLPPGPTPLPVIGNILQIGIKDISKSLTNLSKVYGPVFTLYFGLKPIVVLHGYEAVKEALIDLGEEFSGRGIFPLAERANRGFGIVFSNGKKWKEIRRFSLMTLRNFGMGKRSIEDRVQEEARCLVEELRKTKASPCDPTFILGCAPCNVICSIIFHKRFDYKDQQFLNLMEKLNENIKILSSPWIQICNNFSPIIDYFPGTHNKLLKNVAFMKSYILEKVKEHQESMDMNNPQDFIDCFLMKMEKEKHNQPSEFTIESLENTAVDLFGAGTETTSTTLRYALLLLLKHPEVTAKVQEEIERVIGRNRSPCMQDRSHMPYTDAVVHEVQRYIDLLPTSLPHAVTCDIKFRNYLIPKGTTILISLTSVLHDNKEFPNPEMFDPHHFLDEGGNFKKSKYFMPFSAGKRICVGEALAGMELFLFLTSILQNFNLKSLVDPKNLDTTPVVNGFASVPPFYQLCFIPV
Description: as §1

[4] = mouse
[5] = target: T15, Serotonin (5-hydroxytryptamine) 5-HT1B (Homo sapiens, UniProt P28222); assay: Receptor Profiling 271230; type: binding
T15 construct: purchased Eurofins Discovery Services (Panlabs safety panel)
T15 sequence (P28222 whole entry): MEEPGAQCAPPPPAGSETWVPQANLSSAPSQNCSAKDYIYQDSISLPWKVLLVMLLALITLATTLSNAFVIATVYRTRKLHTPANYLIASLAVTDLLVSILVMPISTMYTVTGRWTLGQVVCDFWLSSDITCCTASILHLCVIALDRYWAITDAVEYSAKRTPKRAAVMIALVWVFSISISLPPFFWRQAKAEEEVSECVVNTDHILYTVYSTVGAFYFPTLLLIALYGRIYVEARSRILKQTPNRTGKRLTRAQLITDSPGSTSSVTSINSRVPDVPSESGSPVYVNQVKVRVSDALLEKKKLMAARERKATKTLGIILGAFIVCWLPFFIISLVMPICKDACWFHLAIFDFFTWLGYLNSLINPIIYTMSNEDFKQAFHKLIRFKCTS
Description: as §1

Moraxella catarrhalis = assay: MIC, microbroth dilution; type: cell-based
in vitro = details: mouse, serum
Cannabinoid CB2 = target: T16, Cannabinoid CB2 (Homo sapiens, UniProt P34972); assay: Receptor Profiling 217100; type: binding
T16 construct: purchased Eurofins Discovery Services (Panlabs safety panel)
T16 sequence (P34972 whole entry): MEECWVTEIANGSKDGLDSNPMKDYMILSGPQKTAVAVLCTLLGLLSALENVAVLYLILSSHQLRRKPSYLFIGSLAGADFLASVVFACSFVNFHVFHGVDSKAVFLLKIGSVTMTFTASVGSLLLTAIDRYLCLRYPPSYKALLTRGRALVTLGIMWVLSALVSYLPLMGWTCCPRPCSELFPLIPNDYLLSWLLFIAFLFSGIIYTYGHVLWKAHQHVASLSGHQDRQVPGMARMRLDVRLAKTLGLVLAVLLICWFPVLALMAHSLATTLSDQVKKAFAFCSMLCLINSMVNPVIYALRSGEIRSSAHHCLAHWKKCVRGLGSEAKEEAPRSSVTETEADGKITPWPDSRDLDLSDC
Description: as §1

[6] = Serum protein binding, dog; type: in vitro ADME
Description: Serum protein binding was determined using an equilibrium dialysis method as described. The amount of compound in each chamber (buffer and serum) was measured using methods for reverse-phase liquid chromatography/mass spectroscopy methods that were customized for each compound.

Cycloogenase COX-2 = target: T17, Cycloogenase COX-2 (Homo sapiens, UniProt P35354); assay: Receptor Profiling 118030; type: biochemical
T17 construct: Eurofins Discovery Services (contract assay) 118030
Description: as §1

Histamine H1 = target: T18, Histamine H1 (Homo sapiens, UniProt P35367); assay: Receptor Profiling 239610; type: binding
T18 construct: purchased Eurofins Discovery Services (Panlabs safety panel)
Description: as §1

Cannabinoid CB1 = target: T19, Cannabinoid CB1 (Homo sapiens, UniProt P21554); assay: Receptor Profiling 217050; type: binding
T19 construct: purchased Eurofins Discovery Services (Panlabs safety panel)
Description: as §1

SMILES: O=C(Nc1nnc(-c2ccc(F)cc2)o1)N1CCc2ccccc2C1 [MBX-4132]
- inhibition at 10 µM (Opiate Kappa (OP2, KOP)): 13%
- inhibition at 10 µM (Phosphodiesterase PDE4D2): 3%
- pIC50 (µM) reported (CYP1A): No activity
- inhibition at 10 µM [1]: 6%
- IC50 (KCNQ1/mink): > 30 µM
- IC50 (Cav1.2): > 30 µM
- inhibition at 10 µM [2]: -10%
- inhibition at 10 µM (Adrenergic α1A): 6%
- inhibition at 10 µM (Cycloogenase COX-1): 8%
- frequency of spontaneous mutants resistant [3]: < 1.2 × 10^−9
- IC50 (CYP2D6): > 100 µM
- inhibition at 10 µM (Opiate Delta1 (OP1, DOP)): 5%
- MIC (Legionella pneumophila; Legionella pneumophila ATCC 33153, replicates): 8.50 µg/mL (≈ 25.1 µM)
- MIC (Legionella pneumophila; Legionella pneumophila, ATCC33153): 8.5 µg/mL (≈ 25.1 µM)
- inhibition at 10 µM (Vasopressin V1A): -4%
- Caco-2 Papp (A to B) (Caco-2 cells; A to B): 11 x 10^-6 cms^-1
- Caco-2 (Papp; x 10-6 cms-1) A→B (Caco-2 cells; A→B, Replicate 1/2, Eurofins): 9.9 x 10-6 cms-1
- Caco-2 (Papp; x 10-6 cms-1) B→A (Caco-2 cells; B→A, Replicate 1/2, Eurofins): 8.19 x 10-6 cms-1
- Papp A→B (Caco-2 permeability; Caco-2, A to B, read-out: Caco-2 Papp (A to B)): 11.1 ×10⁻⁶ cm/s
- Papp A→B (Caco-2 permeability; Caco-2, A→B, Average Value, Eurofins, read-out: Caco-2 A→B): 11.1 ×10⁻⁶ cm/s
- Papp A→B (Caco-2 permeability; Caco-2, A→B, Replicate 1/2, Eurofins, read-out: Caco-2 A→B): 12.4 ×10⁻⁶ cm/s
- Papp A→B (Caco-2 permeability; Caco-2, A→B, Reported value, Eurofins, read-out: Caco-2 A→B): 11.1 ×10⁻⁶ cm/s
- Papp B→A (Caco-2 permeability; Caco-2, B to A, read-out: Caco-2 Papp B to A): 7.3 ×10⁻⁶ cm/s
- Papp B→A (Caco-2 permeability; Caco-2, B→A, Average Value, Eurofins, read-out: Caco-2 B→A): 7.3 ×10⁻⁶ cm/s
- Papp B→A (Caco-2 permeability; Caco-2, B→A, Replicate 1/2, Eurofins, read-out: Caco-2 B→A): 6.33 ×10⁻⁶ cm/s
- Papp B→A (Caco-2 permeability; Caco-2, B→A, Reported value, Eurofins, read-out: Caco-2 B→A): 7.3 ×10⁻⁶ cm/s
- IC50 (CYP2C19): > 100 µM
- IC50 (CYP2C8): > 100 µM
- MIC (Haemophilus influenzae; Haemophilus influenzae ATCC 35056, replicates): 17 µg/mL (≈ 50.2 µM)
- MIC (Haemophilus influenzae; Haemophilus influenzae, ATCC35056, Haemophilus influenzae ATCC 35056, replicates, read-out: MIC): 17 µg/mL (≈ 50.2 µM)
- MIC (Haemophilus influenzae; Haemophilus influenzae, ATCC35056, strain ATCC 35056, read-out: MIC): 17.5 µg/mL (≈ 51.7 µM)
- pIC50 (µM) reported (CYP2C9): No activity
- Murine serum stability (% remaining after 1 hr) [4]: 101%
- inhibition at 10 µM [5]: 21%
- MIC (Moraxella catarrhalis; Moraxella catarrhalis 8716, replicates): 0.0332 µg/mL (≈ 0.0981 µM)
- MIC (Moraxella catarrhalis; Moraxella catarrhalis, Moraxella catarrhalis 8716, replicates, read-out: MIC): 0.0332 µg/mL (≈ 0.0981 µM)
- MIC (Moraxella catarrhalis; Moraxella catarrhalis, strain 8716, read-out: MIC): 0.04 µg/mL (≈ 0.118 µM)
- remaining at 1 h (in vitro; Murine serum stability (% remaining after 1 hr)): 109%
- remaining at 1 h (in vitro; Murine serum stability (% remaining after 1 hr), Replicate 1/2, MBX): 92.6%
- remaining at 1 h (in vitro; Murine serum stability (% remaining after 1 hr), Reported value, MBX): > 99.8%
- remaining at 1 h (in vitro; serum stability, % remaining after 1 h, murine serum, 1 h incubation at 37 °C): > 99.8%
- inhibition at 10 µM (Cannabinoid CB2): -4%
- fraction unbound ([6]; Average Value, Eurofins, read-out: Serum binding (% bound) Dog (converted)): 0.048
- fraction unbound ([6]; Replicate 1/2, Eurofins, read-out: Serum binding (% bound) Dog (converted)): 0.095 and 0.002
- fraction unbound ([6]; Reported value, Eurofins, read-out: Serum binding (% bound) Dog (converted)): 0.048
- fraction unbound ([6]; read-out: Serum Binding (% bound) Dog (converted)): 0.048
- inhibition at 10 µM (Cycloogenase COX-2): 10%
- inhibition at 10 µM (Histamine H1): 11%
- inhibition at 10 µM (Cannabinoid CB1): -4%

— publication PMC7979765, “trans-Translation inhibitors bind to a novel site on the ribosome and clear Neisseria gonorrhoeae in vivo” (Nature Communications, 2021)
